Columns and labels:
Assay in all cases: KINOMEscan kinase profiling
Assay type in all cases: binding
PRKG2 = molecular target: T1, PRKG2 (Homo sapiens, UniProt Q13237); conditions: read-out: %Inhibition by 10 μM SPA70
T1 construct: purchased DiscoverX (Ambit Biosciences) KINOMEscan
How it was run: (§1)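 KINOMEscan profiling followed a published protocol. Kinases whose inhibition exceeded a set cut-off were then tested in a dilution series beginning at 30 µM.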

ARK5 = molecular target: T2, ARK5 (Homo sapiens, UniProt O60285)
T2 construct: purchased DiscoverX (Ambit Biosciences) KINOMEscan
T2 sequence (O60285 whole entry): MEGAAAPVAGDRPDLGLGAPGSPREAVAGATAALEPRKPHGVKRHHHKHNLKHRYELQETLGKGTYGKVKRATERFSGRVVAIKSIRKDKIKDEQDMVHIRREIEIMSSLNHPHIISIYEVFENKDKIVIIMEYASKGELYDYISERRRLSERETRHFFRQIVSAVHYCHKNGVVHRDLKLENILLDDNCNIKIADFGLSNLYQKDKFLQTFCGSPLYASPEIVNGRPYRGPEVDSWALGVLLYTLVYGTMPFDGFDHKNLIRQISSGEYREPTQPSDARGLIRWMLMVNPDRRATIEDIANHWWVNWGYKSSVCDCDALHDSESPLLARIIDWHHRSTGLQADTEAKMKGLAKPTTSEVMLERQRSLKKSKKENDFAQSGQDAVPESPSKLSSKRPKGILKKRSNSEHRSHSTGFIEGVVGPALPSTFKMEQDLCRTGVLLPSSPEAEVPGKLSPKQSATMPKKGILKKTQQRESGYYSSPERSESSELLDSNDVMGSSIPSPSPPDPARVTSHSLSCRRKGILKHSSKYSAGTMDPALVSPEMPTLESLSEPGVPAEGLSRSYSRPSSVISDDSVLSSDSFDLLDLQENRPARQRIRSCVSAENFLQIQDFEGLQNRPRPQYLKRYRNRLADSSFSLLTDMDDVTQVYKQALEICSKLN
How it was run: as §1

MELK = molecular target: T3, MELK (Homo sapiens, UniProt Q14680); conditions: read-out: %Inhibition by 10 μM SPA70
T3 construct: purchased DiscoverX (Ambit Biosciences) KINOMEscan
How it was run: as §1

ADCK3 = molecular target: T4, ADCK3 (Homo sapiens, UniProt Q8NI60); conditions: read-out: %Inhibition by 10 μM SPA70
T4 construct: purchased DiscoverX (Ambit Biosciences) KINOMEscan
How it was run: as §1

CDK8 = molecular target: T5, CDK8 (Homo sapiens, UniProt P49336)
T5 construct: purchased DiscoverX (Ambit Biosciences) KINOMEscan
How it was run: as §1

MARK2 = molecular target: T6, MARK2 (Homo sapiens, UniProt Q7KZI7); conditions: read-out: %Inhibition by 10 μM SPA70
T6 construct: purchased DiscoverX (Ambit Biosciences) KINOMEscan
How it was run: as §1

SNARK = molecular target: T7, SNARK (Homo sapiens, UniProt Q9H093)
T7 construct: purchased DiscoverX (Ambit Biosciences) KINOMEscan
How it was run: as §1

RET = molecular target: T8, RET (Homo sapiens, UniProt P07949); conditions: read-out: %Inhibition by 10 μM SPA70
T8 construct: purchased DiscoverX (Ambit Biosciences) KINOMEscan
How it was run: as §1

[1] = molecular target: T9, RSK4(Kin.Dom.2-C-terminal) (Homo sapiens, UniProt Q9UK32)
T9 construct: RSK4(Kin.Dom.2-C-terminal); purchased DiscoverX (Ambit Biosciences) KINOMEscan
T9 sequence (Q9UK32 401-745 limits assumed): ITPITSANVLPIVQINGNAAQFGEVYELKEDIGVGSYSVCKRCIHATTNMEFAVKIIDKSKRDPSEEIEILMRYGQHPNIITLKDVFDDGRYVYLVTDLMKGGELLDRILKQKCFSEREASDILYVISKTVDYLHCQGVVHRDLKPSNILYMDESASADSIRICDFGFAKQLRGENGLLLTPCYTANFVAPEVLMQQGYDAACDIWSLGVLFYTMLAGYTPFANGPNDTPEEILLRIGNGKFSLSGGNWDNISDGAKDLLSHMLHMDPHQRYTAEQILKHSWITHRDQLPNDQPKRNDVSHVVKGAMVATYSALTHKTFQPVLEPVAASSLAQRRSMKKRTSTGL
How it was run: as §1

[2] = molecular target: T10, RPS6KA5(Kin.Dom.1-N-terminal) (Homo sapiens, UniProt O75582); conditions: read-out: %Inhibition by 10 μM SPA70
T10 construct: RPS6KA5(Kin.Dom.1-N-terminal); purchased DiscoverX (Ambit Biosciences) KINOMEscan
How it was run: as §1

NDR1 = molecular target: T11, NDR1 (Homo sapiens, UniProt Q15208); conditions: read-out: %Inhibition by 10 μM SPA70
T11 construct: purchased DiscoverX (Ambit Biosciences) KINOMEscan
How it was run: as §1

QSK = molecular target: T12, QSK (Homo sapiens, UniProt Q9Y2K2)
T12 construct: purchased DiscoverX (Ambit Biosciences) KINOMEscan
How it was run: as §1

STK35 = molecular target: T13, STK35 (Homo sapiens, UniProt Q8TDR2); conditions: read-out: %Inhibition by 10 μM SPA70
T13 construct: purchased DiscoverX (Ambit Biosciences) KINOMEscan
T13 sequence (Q8TDR2 whole entry): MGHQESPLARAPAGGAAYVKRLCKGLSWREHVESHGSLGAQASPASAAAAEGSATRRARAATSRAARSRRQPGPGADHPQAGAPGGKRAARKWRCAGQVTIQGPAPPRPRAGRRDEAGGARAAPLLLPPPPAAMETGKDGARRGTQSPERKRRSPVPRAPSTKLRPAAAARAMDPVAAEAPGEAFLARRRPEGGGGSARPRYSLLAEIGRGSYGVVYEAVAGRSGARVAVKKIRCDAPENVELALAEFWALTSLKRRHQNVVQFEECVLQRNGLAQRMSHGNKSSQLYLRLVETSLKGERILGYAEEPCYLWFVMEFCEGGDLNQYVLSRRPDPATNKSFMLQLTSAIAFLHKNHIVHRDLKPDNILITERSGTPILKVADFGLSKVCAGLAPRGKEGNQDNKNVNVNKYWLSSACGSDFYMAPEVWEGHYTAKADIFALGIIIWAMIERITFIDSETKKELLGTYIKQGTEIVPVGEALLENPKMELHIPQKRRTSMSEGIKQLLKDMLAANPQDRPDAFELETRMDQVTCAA
How it was run: as §1

MST1R = molecular target: T14, MST1R (Homo sapiens, UniProt Q04912); conditions: read-out: %Inhibition by 10 μM SPA70
T14 construct: purchased DiscoverX (Ambit Biosciences) KINOMEscan
How it was run: as §1

MAP3K4 = molecular target: T15, MAP3K4 (Homo sapiens, UniProt Q9Y6R4); conditions: read-out: %Inhibition by 10 μM SPA70
T15 construct: purchased DiscoverX (Ambit Biosciences) KINOMEscan
T15 sequence (Q9Y6R4 whole entry): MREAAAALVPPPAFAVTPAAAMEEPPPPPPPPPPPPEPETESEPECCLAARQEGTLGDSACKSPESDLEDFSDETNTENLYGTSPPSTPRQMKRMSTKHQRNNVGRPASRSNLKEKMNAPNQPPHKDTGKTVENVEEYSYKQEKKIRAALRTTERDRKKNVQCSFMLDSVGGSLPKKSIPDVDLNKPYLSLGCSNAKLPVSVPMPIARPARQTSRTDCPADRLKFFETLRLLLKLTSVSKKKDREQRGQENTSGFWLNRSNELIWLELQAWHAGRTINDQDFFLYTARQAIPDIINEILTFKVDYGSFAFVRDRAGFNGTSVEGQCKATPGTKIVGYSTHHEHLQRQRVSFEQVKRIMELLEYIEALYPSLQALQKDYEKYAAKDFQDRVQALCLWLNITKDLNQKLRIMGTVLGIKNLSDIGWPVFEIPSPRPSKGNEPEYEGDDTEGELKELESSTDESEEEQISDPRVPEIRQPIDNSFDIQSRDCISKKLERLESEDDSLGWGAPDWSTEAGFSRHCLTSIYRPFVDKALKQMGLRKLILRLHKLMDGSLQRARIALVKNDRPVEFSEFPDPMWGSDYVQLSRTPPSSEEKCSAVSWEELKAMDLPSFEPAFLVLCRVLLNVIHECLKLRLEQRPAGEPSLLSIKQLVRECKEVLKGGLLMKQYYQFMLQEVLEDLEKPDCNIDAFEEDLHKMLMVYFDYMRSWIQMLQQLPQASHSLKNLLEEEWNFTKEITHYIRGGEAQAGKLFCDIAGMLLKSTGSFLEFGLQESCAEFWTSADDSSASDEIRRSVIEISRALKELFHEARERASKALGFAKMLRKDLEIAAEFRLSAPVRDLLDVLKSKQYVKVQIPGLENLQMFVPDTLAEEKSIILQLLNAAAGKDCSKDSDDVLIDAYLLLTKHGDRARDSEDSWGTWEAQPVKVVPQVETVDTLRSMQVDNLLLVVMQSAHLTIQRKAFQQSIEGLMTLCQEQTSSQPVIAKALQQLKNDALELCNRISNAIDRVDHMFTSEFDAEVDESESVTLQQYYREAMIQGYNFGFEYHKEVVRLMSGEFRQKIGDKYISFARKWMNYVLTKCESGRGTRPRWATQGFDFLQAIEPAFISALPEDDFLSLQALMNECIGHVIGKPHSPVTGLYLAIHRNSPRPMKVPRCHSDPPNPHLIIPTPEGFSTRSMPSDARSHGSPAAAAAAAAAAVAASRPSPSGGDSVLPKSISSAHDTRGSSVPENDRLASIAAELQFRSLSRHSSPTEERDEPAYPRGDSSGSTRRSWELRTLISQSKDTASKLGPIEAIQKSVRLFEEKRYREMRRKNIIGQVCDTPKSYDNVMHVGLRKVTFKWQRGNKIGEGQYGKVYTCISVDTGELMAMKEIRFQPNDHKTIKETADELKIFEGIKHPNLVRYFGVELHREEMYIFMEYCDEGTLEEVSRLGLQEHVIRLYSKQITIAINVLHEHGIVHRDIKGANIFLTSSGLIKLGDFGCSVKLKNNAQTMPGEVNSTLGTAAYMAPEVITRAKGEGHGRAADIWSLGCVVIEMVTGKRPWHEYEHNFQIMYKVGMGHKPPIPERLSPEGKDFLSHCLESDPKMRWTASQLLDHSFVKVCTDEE
How it was run: as §1

MARK3 = molecular target: T16, MARK3 (Homo sapiens, UniProt P27448); conditions: read-out: %Inhibition by 10 μM SPA70
T16 construct: purchased DiscoverX (Ambit Biosciences) KINOMEscan
How it was run: as §1

ASK1 = molecular target: T17, ASK1 (Homo sapiens, UniProt Q99683); conditions: read-out: %Inhibition by 10 μM SPA70
T17 construct: purchased DiscoverX (Ambit Biosciences) KINOMEscan
How it was run: as §1

MEK4 = molecular target: T18, MEK4 (Homo sapiens, UniProt P45985); conditions: read-out: %Inhibition by 10 μM SPA70
T18 construct: purchased DiscoverX (Ambit Biosciences) KINOMEscan
How it was run: as §1

AKT1 = molecular target: T19, AKT1 (Homo sapiens, UniProt P31749); conditions: read-out: %Inhibition by 10 μM SPA70
T19 construct: purchased DiscoverX (Ambit Biosciences) KINOMEscan
How it was run: as §1

STK39 = molecular target: T20, STK39 (Homo sapiens, UniProt Q9UEW8); conditions: read-out: %Inhibition by 10 μM SPA70
T20 construct: purchased DiscoverX (Ambit Biosciences) KINOMEscan
How it was run: as §1

PRKG1 = molecular target: T21, PRKG1 (Homo sapiens, UniProt Q13976); conditions: read-out: %Inhibition by 10 μM SPA70
T21 construct: purchased DiscoverX (Ambit Biosciences) KINOMEscan
How it was run: as §1

CAMK1 = molecular target: T22, CAMK1 (Homo sapiens, UniProt Q14012); conditions: read-out: %Inhibition by 10 μM SPA70
T22 construct: purchased DiscoverX (Ambit Biosciences) KINOMEscan
How it was run: as §1

ULK2 = molecular target: T23, ULK2 (Homo sapiens, UniProt Q8IYT8); conditions: read-out: %Inhibition by 10 μM SPA70
T23 construct: purchased DiscoverX (Ambit Biosciences) KINOMEscan
How it was run: as §1

CDKL3 = molecular target: T24, CDKL3 (Homo sapiens, UniProt Q8IVW4); conditions: read-out: %Inhibition by 10 μM SPA70
T24 construct: purchased DiscoverX (Ambit Biosciences) KINOMEscan
T24 sequence (Q8IVW4 whole entry): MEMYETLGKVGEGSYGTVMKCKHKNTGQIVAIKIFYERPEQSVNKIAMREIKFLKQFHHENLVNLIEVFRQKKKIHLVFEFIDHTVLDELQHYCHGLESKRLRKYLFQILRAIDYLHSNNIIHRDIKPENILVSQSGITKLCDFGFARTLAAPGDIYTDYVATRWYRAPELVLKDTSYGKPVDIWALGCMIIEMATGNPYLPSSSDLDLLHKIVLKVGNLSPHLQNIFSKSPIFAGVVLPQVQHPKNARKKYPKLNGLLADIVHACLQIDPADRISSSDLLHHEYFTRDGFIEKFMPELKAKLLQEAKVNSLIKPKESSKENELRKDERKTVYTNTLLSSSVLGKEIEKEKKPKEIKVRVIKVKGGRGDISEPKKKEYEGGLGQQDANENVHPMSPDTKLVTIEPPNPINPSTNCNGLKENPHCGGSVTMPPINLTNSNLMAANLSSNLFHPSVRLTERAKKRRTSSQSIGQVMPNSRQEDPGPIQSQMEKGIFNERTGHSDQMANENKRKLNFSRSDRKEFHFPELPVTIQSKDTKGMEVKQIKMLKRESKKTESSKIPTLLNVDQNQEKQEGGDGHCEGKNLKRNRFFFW
How it was run: as §1

IGF1R = molecular target: T25, IGF1R (Homo sapiens, UniProt P08069); conditions: read-out: %Inhibition by 10 μM SPA70
T25 construct: purchased DiscoverX (Ambit Biosciences) KINOMEscan
How it was run: as §1

CDK9 = molecular target: T26, CDK9 (Homo sapiens, UniProt P50750); conditions: read-out: %Inhibition by 10 μM SPA70
T26 construct: purchased DiscoverX (Ambit Biosciences) KINOMEscan
How it was run: as §1

CAMKK1 = molecular target: T27, CAMKK1 (Homo sapiens, UniProt Q8N5S9); conditions: read-out: %Inhibition by 10 μM SPA70
T27 construct: purchased DiscoverX (Ambit Biosciences) KINOMEscan
How it was run: as §1

MYO3B = molecular target: T28, MYO3B (Homo sapiens, UniProt Q8WXR4); conditions: read-out: %Inhibition by 10 μM SPA70
T28 construct: purchased DiscoverX (Ambit Biosciences) KINOMEscan
T28 sequence (Q8WXR4 whole entry): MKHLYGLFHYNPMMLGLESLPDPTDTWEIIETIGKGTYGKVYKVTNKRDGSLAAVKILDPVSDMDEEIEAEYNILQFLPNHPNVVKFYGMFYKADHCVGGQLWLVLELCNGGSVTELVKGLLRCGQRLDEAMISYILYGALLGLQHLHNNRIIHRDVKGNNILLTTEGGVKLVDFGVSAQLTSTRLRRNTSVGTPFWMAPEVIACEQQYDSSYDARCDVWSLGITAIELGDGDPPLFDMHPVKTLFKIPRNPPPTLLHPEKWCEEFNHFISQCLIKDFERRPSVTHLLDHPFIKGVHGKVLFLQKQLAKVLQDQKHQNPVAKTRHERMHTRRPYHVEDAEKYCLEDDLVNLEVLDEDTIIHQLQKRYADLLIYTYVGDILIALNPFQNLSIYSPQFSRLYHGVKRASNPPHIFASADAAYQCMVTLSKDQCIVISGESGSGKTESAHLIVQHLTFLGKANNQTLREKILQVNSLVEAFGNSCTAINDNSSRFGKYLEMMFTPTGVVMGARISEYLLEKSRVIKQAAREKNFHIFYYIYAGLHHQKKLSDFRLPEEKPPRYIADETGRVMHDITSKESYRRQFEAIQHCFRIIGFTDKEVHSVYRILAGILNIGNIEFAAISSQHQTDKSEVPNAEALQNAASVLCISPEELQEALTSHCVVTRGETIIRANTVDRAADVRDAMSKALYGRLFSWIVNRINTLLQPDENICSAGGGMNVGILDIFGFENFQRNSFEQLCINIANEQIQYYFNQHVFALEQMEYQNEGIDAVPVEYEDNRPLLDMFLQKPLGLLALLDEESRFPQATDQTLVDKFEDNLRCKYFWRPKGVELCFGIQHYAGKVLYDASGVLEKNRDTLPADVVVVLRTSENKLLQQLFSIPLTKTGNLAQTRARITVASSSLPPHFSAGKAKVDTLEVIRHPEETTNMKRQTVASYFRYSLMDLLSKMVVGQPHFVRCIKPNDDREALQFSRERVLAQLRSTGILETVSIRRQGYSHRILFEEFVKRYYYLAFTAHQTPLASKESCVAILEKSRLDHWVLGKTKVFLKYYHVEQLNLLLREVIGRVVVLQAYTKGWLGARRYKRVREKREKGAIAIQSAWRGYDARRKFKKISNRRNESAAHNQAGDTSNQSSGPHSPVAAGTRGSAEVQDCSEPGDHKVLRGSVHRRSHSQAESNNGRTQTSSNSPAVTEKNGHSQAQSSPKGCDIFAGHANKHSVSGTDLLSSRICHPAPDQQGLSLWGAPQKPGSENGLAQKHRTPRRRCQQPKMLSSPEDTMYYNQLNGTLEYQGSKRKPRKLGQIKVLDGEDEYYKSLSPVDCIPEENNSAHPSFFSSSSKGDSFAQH
How it was run: as §1

FGFR1 = molecular target: T29, FGFR1 (Homo sapiens, UniProt P11362); conditions: read-out: %Inhibition by 10 μM SPA70
T29 construct: purchased DiscoverX (Ambit Biosciences) KINOMEscan
How it was run: as §1

GRK7 = molecular target: T30, GRK7 (Homo sapiens, UniProt Q8WTQ7); conditions: read-out: %Inhibition by 10 μM SPA70
T30 construct: purchased DiscoverX (Ambit Biosciences) KINOMEscan
How it was run: as §1

[3] = molecular target: T31, RPS6KA4(Kin.Dom.2-C-terminal) (Homo sapiens, UniProt O75676); conditions: read-out: %Inhibition by 10 μM SPA70
T31 construct: RPS6KA4(Kin.Dom.2-C-terminal); purchased DiscoverX (Ambit Biosciences) KINOMEscan
How it was run: as §1

SYK = molecular target: T32, SYK (Homo sapiens, UniProt P43405)
T32 construct: purchased DiscoverX (Ambit Biosciences) KINOMEscan
How it was run: as §1

DCAMKL1 = molecular target: T33, DCAMKL1 (Homo sapiens, UniProt O15075)
T33 construct: purchased DiscoverX (Ambit Biosciences) KINOMEscan
How it was run: as §1

TESK1 = molecular target: T34, TESK1 (Homo sapiens, UniProt Q15569); conditions: read-out: %Inhibition by 10 μM SPA70
T34 construct: purchased DiscoverX (Ambit Biosciences) KINOMEscan
How it was run: as §1

CDC2L5 = molecular target: T35, CDC2L5 (Homo sapiens, UniProt Q14004)
T35 construct: purchased DiscoverX (Ambit Biosciences) KINOMEscan
How it was run: as §1

EIF2AK1 = molecular target: T36, EIF2AK1 (Homo sapiens, UniProt Q9BQI3); conditions: read-out: %Inhibition by 10 μM SPA70
T36 construct: purchased DiscoverX (Ambit Biosciences) KINOMEscan
How it was run: as §1

RIPK1 = molecular target: T37, RIPK1 (Homo sapiens, UniProt Q13546); conditions: read-out: %Inhibition by 10 μM SPA70
T37 construct: purchased DiscoverX (Ambit Biosciences) KINOMEscan
How it was run: as §1

TAOK2 = molecular target: T38, TAOK2 (Homo sapiens, UniProt Q9UL54); conditions: read-out: %Inhibition by 10 μM SPA70
T38 construct: purchased DiscoverX (Ambit Biosciences) KINOMEscan
How it was run: as §1

AKT2 = molecular target: T39, AKT2 (Homo sapiens, UniProt P31751); conditions: read-out: %Inhibition by 10 μM SPA70
T39 construct: purchased DiscoverX (Ambit Biosciences) KINOMEscan
How it was run: as §1

SNRK = molecular target: T40, SNRK (Homo sapiens, UniProt Q9NRH2); conditions: read-out: %Inhibition by 10 μM SPA70
T40 construct: purchased DiscoverX (Ambit Biosciences) KINOMEscan
How it was run: as §1

COc1ccc(OC)c(-n2nnc(S(=O)(=O)c3ccc(C(C)(C)C)cc3)c2C)c1 [SPA70]
inhibition at 10 µM (PRKG2): 12% | %Inhibition by 10 μM SPA70 (ARK5): 41% | inhibition at 10 µM (MELK): 3% | inhibition at 10 µM (ADCK3): 0% | %Inhibition by 10 μM SPA70 (CDK8): 2% | inhibition at 10 µM (MARK2): 16% | %Inhibition by 10 μM SPA70 (SNARK): 8% | inhibition at 10 µM (RET): 0% | %Inhibition by 10 μM SPA70 [1]: 16% | inhibition at 10 µM [2]: 14% | inhibition at 10 µM (NDR1): 0% | %Inhibition by 10 μM SPA70 (QSK): 43% | inhibition at 10 µM (STK35): 0% | inhibition at 10 µM (MST1R): 3% | inhibition at 10 µM (MAP3K4): 0% | inhibition at 10 µM (MARK3): 2% | inhibition at 10 µM (ASK1): 4% | inhibition at 10 µM (MEK4): 0% | inhibition at 10 µM (AKT1): 0% | inhibition at 10 µM (STK39): 7% | inhibition at 10 µM (PRKG1): 0% | inhibition at 10 µM (CAMK1): 0% | inhibition at 10 µM (ULK2): 0% | inhibition at 10 µM (CDKL3): 6% | inhibition at 10 µM (IGF1R): 0% | inhibition at 10 µM (CDK9): 0% | inhibition at 10 µM (CAMKK1): 1% | inhibition at 10 µM (MYO3B): 5% | inhibition at 10 µM (FGFR1): 0% | inhibition at 10 µM (GRK7): 0% | inhibition at 10 µM [3]: 0% | %Inhibition by 10 μM SPA70 (SYK): 0% | %Inhibition by 10 μM SPA70 (DCAMKL1): 0% | inhibition at 10 µM (TESK1): 0% | %Inhibition by 10 μM SPA70 (CDC2L5): 0% | inhibition at 10 µM (EIF2AK1): 0% | inhibition at 10 µM (RIPK1): 0% | inhibition at 10 µM (TAOK2): 21% | inhibition at 10 µM (AKT2): 0% | inhibition at 10 µM (SNRK): 0%

Reference: publication PMC5622171 (Nature Communications, 2017)
